# Experiments:
# SW-620 = assay: Growth inhibition of human SW620 cells assessed as cell growth at 0.1 uM incubated for 48 hrs by sulforhodamine B assay relative to control; type: functional; conditions: SW-620, 48 h, read-out: Activity
# SNB-75 [1] = assay: Growth inhibition of human SNB75 cells assessed as cell growth at 0.01 uM incubated for 48 hrs by sulforhodamine B assay relative to control; type: functional; conditions: SNB-75, 48 h, read-out: Activity
# OVCAR-5 = assay: Growth inhibition of human OVCAR5 cells assessed as cell growth at 0.1 uM incubated for 48 hrs by sulforhodamine B assay relative to control; type: functional; conditions: OVCAR-5, 48 h, read-out: Activity
# A549 = assay: Growth inhibition of human A549/ATCC cells assessed as cell growth at 0.01 uM incubated for 48 hrs by sulforhodamine B assay relative to control; type: functional; conditions: A549, 48 h, read-out: Activity
# NCI/ADR-RES = assay: Growth inhibition of human NCI/ADR-RES cells assessed as cell growth at 0.01 uM incubated for 48 hrs by sulforhodamine B assay relative to control; type: functional; conditions: read-out: Activity
# K562 = assay: Growth inhibition of human K562 cells assessed as cell growth at 0.01 uM incubated for 48 hrs by sulforhodamine B assay relative to control; type: functional; conditions: K562, 48 h, read-out: Activity
# UACC-257 = assay: Growth inhibition of human UACC257 cells assessed as cell growth at 0.1 uM incubated for 48 hrs by sulforhodamine B assay relative to control; type: functional; conditions: UACC-257, 48 h, read-out: Activity
# SK-MEL-2 = assay: Growth inhibition of human SK-MEL-2 cells assessed as cell growth at 0.1 uM incubated for 48 hrs by sulforhodamine B assay relative to control; type: functional; conditions: SK-MEL-2, 48 h, read-out: Activity
# SK-MEL-5 = assay: Growth inhibition of human SK-MEL-5 cells incubated for 48 hrs by sulforhodamine B assay; type: functional, cell-based; conditions: SK-MEL-5, 48 h
# RPMI-8226 [2] = assay: Growth inhibition of human RPMI8226 cells assessed as cell growth at 100 uM incubated for 48 hrs by sulforhodamine B assay relative to control; type: functional; conditions: RPMI-8226, 48 h, read-out: Activity
# SF-295 = assay: Growth inhibition of human SF295 cells assessed as cell growth at 0.01 uM incubated for 48 hrs by sulforhodamine B assay relative to control; type: functional; conditions: SF-295, 48 h, read-out: Activity
# LOX IMVI = assay: Growth inhibition of human LOXIMVI cells incubated for 48 hrs by sulforhodamine B assay; type: functional
# SNB-19 = assay: Growth inhibition of human SNB19 cells assessed as cell growth at 1 uM incubated for 48 hrs by sulforhodamine B assay relative to control; type: functional; conditions: SNB-19, 48 h, read-out: Activity
# MDA-MB-435 = assay: Growth inhibition of human MDA-MB-435 cells assessed as cell growth at 1 uM incubated for 48 hrs by sulforhodamine B assay relative to control; type: functional; conditions: MDA-MB-435, 48 h, read-out: Activity
# ACHN [3] = assay: Growth inhibition of human ACHN cells assessed as cell growth at 100 uM incubated for 48 hrs by sulforhodamine B assay relative to control; type: functional; conditions: read-out: Activity
# NCI-H23 = assay: Growth inhibition of human NCI-H23 cells assessed as cell growth at 0.01 uM incubated for 48 hrs by sulforhodamine B assay relative to control; type: functional; conditions: NCI-H23, 48 h, read-out: Activity
# IGROV-1 = assay: Growth inhibition of human IGROV1 cells assessed as cell growth at 0.1 uM incubated for 48 hrs by sulforhodamine B assay relative to control; type: functional; conditions: IGROV-1, 48 h, read-out: Activity
# SNB-75 [4] = assay: Growth inhibition of human SNB75 cells assessed as cell growth at 100 uM incubated for 48 hrs by sulforhodamine B assay relative to control; type: functional; conditions: SNB-75, 48 h, read-out: Activity
# SN12C = assay: Growth inhibition of human SN12C cells assessed as cell growth at 0.01 uM incubated for 48 hrs by sulforhodamine B assay relative to control; type: functional; conditions: read-out: Activity
# ACHN [5] = assay: Growth inhibition of human ACHN cells incubated for 48 hrs by sulforhodamine B assay; type: functional, cell-based
# NCI-H522 [6] = assay: Growth inhibition of human NCI-H522 cells incubated for 48 hrs by sulforhodamine B assay; type: functional, cell-based; conditions: NCI-H522, 48 h
# DU-145 = assay: Growth inhibition of human DU145 cells assessed as cell growth at 1 uM incubated for 48 hrs by sulforhodamine B assay relative to control; type: functional; conditions: DU-145, 48 h, read-out: Activity
# SK-OV-3 = assay: Growth inhibition of human SKOV3 cells assessed as cell growth at 0.01 uM incubated for 48 hrs by sulforhodamine B assay relative to control; type: functional; conditions: SK-OV-3, 48 h, read-out: Activity
# U-251 = assay: Growth inhibition of human U251 cells incubated for 48 hrs by sulforhodamine B assay; type: functional, cell-based; conditions: U-251, 48 h
# RPMI-8226 [7] = assay: Growth inhibition of human RPMI8226 cells incubated for 48 hrs by sulforhodamine B assay; type: functional, cell-based; conditions: RPMI-8226, 48 h
# SR = assay: Growth inhibition of human SR cells incubated for 48 hrs by sulforhodamine B assay; type: functional, cell-based
# OVCAR-3 = assay: Growth inhibition of human OVCAR3 cells assessed as cell growth at 0.1 uM incubated for 48 hrs by sulforhodamine B assay relative to control; type: functional; conditions: OVCAR-3, 48 h, read-out: Activity
# NCI-H522 [8] = assay: Growth inhibition of human NCI-H522 cells assessed as cell growth at 10 uM incubated for 48 hrs by sulforhodamine B assay relative to control; type: functional; conditions: NCI-H522, 48 h, read-out: Activity
# [9] = read-out: LC50 (the source's name)
# [10] = read-out: pLC50 (the source's name) (converted)
compound,measurement,setting,value
O=C(Nc1cccc(-n2cc(-c3ccncc3)c(-c3cc(O)cc(Cl)c3)n2)c1)Nc1ccc(Cl)c(Cl)c1,growth at 0.1 µM,SW-620,99%
same,growth at 0.01 µM,SNB-75 [1],94%
same,growth at 0.1 µM,OVCAR-5,90%
same,growth at 0.01 µM,A549,96%
same,growth at 0.01 µM,NCI/ADR-RES,109%
same,growth at 0.01 µM,K562,107%
same,growth at 0.1 µM,UACC-257,91%
same,growth at 0.1 µM,SK-MEL-2,96%
same,GI50,SK-MEL-5; read-out: GI50,1520 nM
same,CC50,SK-MEL-5; [9],5750 nM
same,TGI,SK-MEL-5; read-out: TGI,30400 nM
same,GI50,SK-MEL-5; read-out: pGI50 (converted),1620 nM
same,CC50,SK-MEL-5; [10],5750 nM
same,TGI,SK-MEL-5; read-out: pTGI (converted),3020 nM
same,growth at 100 µM,RPMI-8226 [2],-27%
same,growth at 0.01 µM,SF-295,92%
same,GI50,LOX IMVI; read-out: GI50,1560 nM
same,TGI,LOX IMVI; read-out: TGI,41000 nM
same,GI50,LOX IMVI; read-out: pGI50 (converted),1860 nM
same,TGI,LOX IMVI; read-out: pTGI (converted),4170 nM
same,growth at 1 µM,SNB-19,90%
same,growth at 1 µM,MDA-MB-435,79%
same,growth at 100 µM,ACHN [3],-33%
same,growth at 0.01 µM,NCI-H23,96%
same,growth at 0.1 µM,IGROV-1,101%
same,growth at 100 µM,SNB-75 [4],-15%
same,growth at 0.01 µM,SN12C,100%
same,GI50,ACHN [5]; read-out: GI50,2210 nM
same,CC50,ACHN [5]; [9],> 100000 nM
same,TGI,ACHN [5]; read-out: TGI,67100 nM
same,GI50,ACHN [5]; read-out: pGI50 (converted),2190 nM
same,CC50,ACHN [5]; [10],> 100000 nM
same,TGI,ACHN [5]; read-out: pTGI (converted),8910 nM
same,GI50,NCI-H522 [6]; read-out: GI50,1100 nM
same,CC50,NCI-H522 [6]; [9],5990 nM
same,TGI,NCI-H522 [6]; read-out: TGI,31400 nM
same,GI50,NCI-H522 [6]; read-out: pGI50 (converted),1100 nM
same,CC50,NCI-H522 [6]; [10],8910 nM
same,TGI,NCI-H522 [6]; read-out: pTGI (converted),3160 nM
same,growth at 1 µM,DU-145,90%
same,growth at 0.01 µM,SK-OV-3,108%
same,IC50,U-251,1440 nM
same,GI50,U-251; read-out: GI50,1440 nM
same,CC50,U-251; [9],5510 nM
same,TGI,U-251; read-out: TGI,30000 nM
same,GI50,U-251; read-out: pGI50 (converted),1450 nM
same,CC50,U-251; [10],6610 nM
same,TGI,U-251; read-out: pTGI (converted),3090 nM
same,IC50,RPMI-8226 [7],1440 nM
same,GI50,RPMI-8226 [7]; read-out: GI50,1440 nM
same,CC50,RPMI-8226 [7]; [9],> 100000 nM
same,TGI,RPMI-8226 [7]; read-out: TGI,43000 nM
same,GI50,RPMI-8226 [7]; read-out: pGI50 (converted),1450 nM
same,CC50,RPMI-8226 [7]; [10],> 100000 nM
same,TGI,RPMI-8226 [7]; read-out: pTGI (converted),4270 nM
same,GI50,SR; read-out: GI50,1300 nM
same,CC50,SR; [9],> 100000 nM
same,TGI,SR; read-out: TGI,42400 nM
same,GI50,SR; read-out: pGI50 (converted),1320 nM
same,CC50,SR; [10],> 100000 nM
same,TGI,SR; read-out: pTGI (converted),4270 nM
same,growth at 0.1 µM,OVCAR-3,101%
COc1cc(Cl)cc(-c2nn(-c3cccc(NC(=O)Nc4cc(C(F)(F)F)cc(C(F)(F)F)c4)c3)cc2-c2ccncc2)c1,growth at 0.1 µM,SW-620,94%
same,growth at 0.01 µM,SNB-75 [1],71%
same,growth at 0.1 µM,OVCAR-5,95%
same,growth at 0.01 µM,A549,100%
same,growth at 0.01 µM,NCI/ADR-RES,99%
same,growth at 0.01 µM,K562,97%
same,growth at 10 µM,NCI-H522 [8],-15.6%
same,growth at 0.1 µM,UACC-257,94%
same,growth at 0.1 µM,SK-MEL-2,95%
same,IC50,SK-MEL-5,1140 nM
same,GI50,SK-MEL-5; read-out: GI50,1140 nM
same,CC50,SK-MEL-5; [9],50.4 nM
same,TGI,SK-MEL-5; read-out: TGI,2390 nM
same,GI50,SK-MEL-5; read-out: pGI50 (converted),1150 nM
same,CC50,SK-MEL-5; [10],5010 nM
same,TGI,SK-MEL-5; read-out: pTGI (converted),2400 nM
same,growth at 100 µM,RPMI-8226 [2],-8%
same,growth at 0.01 µM,SF-295,95%
same,growth at 1 µM,SNB-19,28%
same,growth at 1 µM,MDA-MB-435,22%
same,growth at 100 µM,ACHN [3],-38%
same,growth at 0.01 µM,NCI-H23,94%
same,growth at 0.1 µM,IGROV-1,104%
same,growth at 100 µM,SNB-75 [4],-58%
same,growth at 0.01 µM,SN12C,96%
same,IC50,ACHN [5],400 nM
same,GI50,ACHN [5]; read-out: GI50,397 nM
same,CC50,ACHN [5]; [9],> 100000 nM
same,TGI,ACHN [5]; read-out: TGI,12500 nM
same,GI50,ACHN [5]; read-out: pGI50 (converted),398 nM
same,CC50,ACHN [5]; [10],> 100000 nM
same,TGI,ACHN [5]; read-out: pTGI (converted),12600 nM
same,IC50,NCI-H522 [6],350 nM
same,GI50,NCI-H522 [6]; read-out: GI50,353 nM
same,TGI,NCI-H522 [6]; read-out: TGI,1760 nM
same,GI50,NCI-H522 [6]; read-out: pGI50 (converted),355 nM
same,CC50,NCI-H522 [6]; [10],8910 nM
same,TGI,NCI-H522 [6]; read-out: pTGI (converted),1780 nM
same,growth at 1 µM,DU-145,27%
same,growth at 0.01 µM,SK-OV-3,100%
same,IC50,U-251,320 nM
same,GI50,U-251; read-out: GI50,324 nM
same,CC50,U-251; [9],43 nM
same,TGI,U-251; read-out: TGI,1310 nM
same,GI50,U-251; read-out: pGI50 (converted),324 nM
same,CC50,U-251; [10],4370 nM
same,TGI,U-251; read-out: pTGI (converted),1320 nM
same,IC50,RPMI-8226 [7],240 nM
same,GI50,RPMI-8226 [7]; read-out: GI50,238 nM
same,CC50,RPMI-8226 [7]; [9],> 100000 nM
same,TGI,RPMI-8226 [7]; read-out: TGI,760 nM
same,GI50,RPMI-8226 [7]; read-out: pGI50 (converted),234 nM
same,CC50,RPMI-8226 [7]; [10],> 100000 nM
same,TGI,RPMI-8226 [7]; read-out: pTGI (converted),759 nM
same,IC50,SR,450 nM
same,GI50,SR; read-out: GI50,452 nM
same,CC50,SR; [9],> 100000 nM
same,TGI,SR; read-out: TGI,3310 nM
same,GI50,SR; read-out: pGI50 (converted),447 nM
same,CC50,SR; [10],> 100000 nM
same,TGI,SR; read-out: pTGI (converted),3310 nM
same,growth at 0.1 µM,OVCAR-3,95%

# Source: ChEMBL document CHEMBL4308841, “Synthesis, in vitro antiproliferative activity, and kinase inhibitory effects of pyrazole-containing diarylureas and diarylamides” (Eur J Med Chem, 2018)
